Measurements reported in patent US20250326744A1, “PIPERAZINE DERIVATIVE OR SALT THEREOF, AND PHARMACEUTICAL COMPOSITION” (priority 2022, published 2025).
Structures can show the parent of a compound that is named as a salt.

Key:
mexB (EC) strain = test: Efflux ability inhibition effect on drug efflux pump MexB (Test Examples 1 and 3): proliferation (OD595) of mexB (EC) strain with EM or LVFX at 1/4 MIC, EC75; format: cell-based, Escherichia coli; conditions: for EC75, mexB (EC) strain, EM: combined with EM at 1/4 MIC; for EC75, mexB (EC) strain, LVFX: combined with LVFX at 1/4 MIC
Description: The efflux ability inhibition effect of the test compound on the drug efflux pump was evaluated using the bacterial proliferative ability in the presence of EM or LVFX as an index.
EM is a macrolide antibacterial agent and is a drug that is discharged outside the bacteria by MexB and MexY LVFX is a quinolone antibacterial agent and is a drug that is discharged outside the bacteria by MexB and MexY In a case where the test compound has an efflux ability inhibitory ability against the drug efflux pump, the proliferation of bacteria is suppressed by the combined use of EM or LVFX and the test compound, as compared with the case where EM or LVFX is used alone.
A mutant strain (hereinafter, referred to as an “mexB (EC) strain”) obtained by transferring the genes of the main multidrug efflux system MexAB-OprM of Pseudomonas aeruginosa described in Nature, 2013, Vol. 500, pp. 102 to 106 as a plasmid into Escherichia coli strains in which the acrB and tolC genes of the multidrug efflux system AcrAB-TolC were deleted as described in Journal of Infection and Chemotherapy 2008, Vol. 14, pp. 23 to 29, and a gene transfer strain (hereinafter, referred to as an “mexY (EC) strain”) of another main multidrug efflux system MexXY-OprM of Pseudomonas aeruginosa were used for the evaluation of test compounds.
In the mexB (EC) strain, an expression level of MexB of the drug efflux pump is accelerated, and in the mexY (EC) strain, an expression level of MexY of the drug efflux pump is accelerated.
For culturing each Escherichia coli strain, a 96-well plate (amount of culture medium per well: 100 μL) was used and Luria-Bertani broth (LB) culture medium was used. The inoculation amount of the bacteria was set to 10^4 to 5 CFU/well.
The mexB (EC) strain and the mexY (EC) strain were cultured for 16 to 20 hours in a culture medium to which EM or LVFX and test compounds at various concentrations (0 to 800 μM) were added, and the proliferation of the bacterial strains was evaluated by optical turbidity at 595 nm (OD595). The concentration of the antibacterial agents (EM and LVFX) in the culture medium were each set to ¼ of the minimum inhibitory concentration (MIC) (hereinafter, referred to as ¼ MIC) of the single antibacterial agent.
The proliferation of bacteria in a case where the antibacterial agent was added at the concentration of ¼ MIC in a case where the test compound was not added was measured, and compared with the proliferation of bacteria in a case where the test compound was contained, and the lowest concentration of the test compound at which the proliferation was inhibited by 75% or more was defined as the drug efflux pump inhibitory ability of the test compound as 75% inhibitory effect concentration (EC75).
The drug efflux pump inhibitory ability of each test compound in a case of being used in combination with the antibacterial agent against the mexB (EC) strain and the mexY (EC) strain was evaluated as follows according to the value of EC75. • S: EC75≤[…] • A: 12.5 μM<EC75≤25 μM • B: 25 μM<EC75≤100 μM • C: […]
In the same manner as in Test Example 1, the efflux ability inhibition effect of the test compound on the drug efflux pump was evaluated using the bacterial proliferation ability in the presence of EM or LVFX as an index.

mexY (EC) strain = test: Efflux ability inhibition effect on drug efflux pump MexY (Test Examples 1 and 3): proliferation (OD595) of mexY (EC) strain with EM or LVFX at 1/4 MIC, EC75; format: cell-based, Escherichia coli; conditions: Table 51, Test Example 1, 16 to 20 hours culture, OD595; for EC75, mexY (EC) strain, EM: combined with EM at 1/4 MIC; for EC75, mexY (EC) strain, LVFX: combined with LVFX at 1/4 MIC
How it was run: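 E. coli ΔacrB/ΔtolC strains carrying P. aeruginosa MexAB-OprM or MexXY-OprM were grown in LB for 16 to 20 hours with EM or LVFX at ¼ MIC plus compound (0 to 800 μM). Growth was read as OD595. EC75 is the lowest compound concentration giving ≥75% growth inhibition versus antibiotic alone.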

mexB (PA) strain = test: Combinational effect with antibacterial agent against Pseudomonas aeruginosa (Test Examples 2 and 4): mexB (PA) strain with LVFX, TC or AZT at 1/4 MIC, EC99; format: cell-based; conditions: mexB (PA) strain, Test Example 4
How it was run: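 EC99 denotes the minimum test-compound concentration (range 0–800 μM) that suppresses ≥99% of growth, measured by OD595, when combined with ¼ MIC levofloxacin (LVFX), tetracycline or aztreonam. The efflux-pump mutant mexB (PA), expressing mainly MexAB-OprM, was inoculated at 10^4–5 CFU/well in CAMHB for 16–20 h.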

S-3769 strain = test: Combinational effect with antibacterial agent against Pseudomonas aeruginosa (Test Examples 2 and 4): S-3769 strain with AMK or GM at 1/4 MIC, EC99; format: cell-based; conditions: S-3769 strain, Test Example 4
How it was run: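 EC99, the lowest test-compound concentration inhibiting growth by ≥99% (OD595), was measured with aminoglycoside AMK or GM held at ¼ MIC. Strain S-3769, a MexY-overexpressing clinical isolate, was cultured in CAMHB at 10^4 to 5 CFU/well for 16–20 h; compound range 0–800 μM.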

[1] = Table 51, Test Example 1, 16 to 20 hours culture, OD595

Row | SMILES | EC75, mexB (EC) strain, EM (mexB (EC) strain; [1]) | EC75, mexB (EC) strain, LVFX (mexB (EC) strain; [1]) | EC75, mexY (EC) strain, EM (mexY (EC) strain) | EC75, mexY (EC) strain, LVFX (mexY (EC) strain) | EC75, mexB (EC) strain, LVFX (mexB (EC) strain; Table 53, Test Example 3, same manner as Test Example 1) | EC99, combinational effect with AZT, mexB (PA) (mexB (PA) strain; combined with AZT at 1/4 MIC) | EC99, combinational effect with LVFX, mexB (PA) (mexB (PA) strain; combined with LVFX at 1/4 MIC) | EC99, combinational effect with TC, mexB (PA) (mexB (PA) strain; combined with TC at 1/4 MIC) | EC99, combinational effect with AMK, S-3769 strain (S-3769 strain; combined with AMK at 1/4 MIC) | EC99, combinational effect with GM, S-3769 strain (S-3769 strain; combined with GM at 1/4 MIC)
1 | CCOc1cccc(F)c1CN1CCN(C(=O)[C@H](N)C2CCN(CC(F)(F)c3ccccc3)CC2)CC1 [Example 54, Hydrobromide of (R)-2-amino-2-(1-(2,2-difluoro-2-phenylethyl)piperidin-4-yl)-1-(4-(2-ethoxy-6-fluorobenzyl)piperazin-1-yl) ethan-1-one] | B (25 μM<EC75≤100 μM) | B (25 μM<EC75≤100 μM) | B (25 μM<EC75≤100 μM) | B (25 μM<EC75≤100 μM) |  |  |  |  |  | 
2 | CN[C@@H](C(=O)N1CCN(Cc2ccccc2OC)CC1)C1CCN(CCc2ccccc2)CC1 [Example 131, hydrochloride of (R)-1-(4-(2-methoxybenzyl)piperazin-1-yl)-2-(methylamino)-2-(1-phenethylpiperidin-4-yl)ethan-1-one] | B (25 μM<EC75≤100 μM) | B (25 μM<EC75≤100 μM) | B (25 μM<EC75≤100 μM) | B (25 μM<EC75≤100 μM) |  |  |  |  |  | 
3 | N[C@@H](C(=O)N1CCN(Cc2cscn2)CC1)C1CCN(CCc2cc(Cl)ccc2-c2ccccc2)CC1 [Example 13, Hydrobromide of (R)-2-amino-2-(1-(2-(4-chloro-[1,1′-biphenyl]-2-yl)ethyl)piperidin-4-yl)-1-(4-(thiazol-4-ylmethyl)piperazin-1-yl)ethan-1-one] | B (25 μM<EC75≤100 μM) | B (25 μM<EC75≤100 μM) | B (25 μM<EC75≤100 μM) | B (25 μM<EC75≤100 μM) |  |  |  |  |  | 
4 | COc1ccccc1CN1CCN(C(=O)[C@H](N)C2CCN(CCc3ccsc3)CC2)CC1 [Example 133, hydrochloride of (R)-2-amino-1-(4-(2-methoxybenzyl)piperazin-1-yl)-2-(1-(2-(thiophen-3-yl)ethyl)piperidin-4-yl)ethan-1-one] |  | A (12.5 μM<EC75≤25 μM) | B (25 μM<EC75≤100 μM) | B (25 μM<EC75≤100 μM) |  |  |  |  |  | 
5 | COc1ccccc1CN1CCN(C(=O)[C@H](N)C2CCN(CC(CN)c3ccccc3)CC2)CC1 (stereo partly drawn) [Example 136, hydrochloride of (2R)-2-amino-2-(1-(3-amino-2-phenylpropyl)piperidin-4-yl)-1-(4-(2-methoxybenzyl)piperazin-1-yl)ethan-1-one] | B (25 μM<EC75≤100 μM) |  | B (25 μM<EC75≤100 μM) | B (25 μM<EC75≤100 μM) |  |  |  |  |  | 
6 | COCCOc1cccc(F)c1CN1CCN(C(=O)[C@H](N)C2CCN(CCc3ccccc3)CC2)CC1 [Example 116, Hydrochloride of (R)-2-amino-1-(4-(2-fluoro-6-(2-methoxyethoxy)benzyl)piperazin-1-yl)-2-(1-phenethylpiperidin-4-yl)ethan-1-one] | A (12.5 μM<EC75≤25 μM) | A (12.5 μM<EC75≤25 μM) | B (25 μM<EC75≤100 μM) | B (25 μM<EC75≤100 μM) |  |  |  |  |  | 
7 | COc1ccccc1CN1CCN(C(=O)C(=NN)C2CCN(CCc3ccccc3)CC2)CC1 [Example 301, hydrochloride of 2-hydrazinyliden-1-(4-(2-methoxybenzyl)piperazin-1-yl)-2-(1-phenethylpiperidin-4-yl)ethan-1-one] | B (25 μM<EC75≤100 μM) | B (25 μM<EC75≤100 μM) | B (25 μM<EC75≤100 μM) | B (25 μM<EC75≤100 μM) |  |  |  |  |  | 
8 | COc1ccccc1CN1CCN(C(=O)CN2CCC(CN)(CCc3ccccc3)CC2)CC1 [Example 413, hydrochloride of 2-(4-(aminomethyl)-4-phenethylpiperidin-1-yl)-1-(4-(2-methoxybenzyl)piperazin-1-yl)ethan-1-one] | A (12.5 μM<EC75≤25 μM) | A (12.5 μM<EC75≤25 μM) | A (12.5 μM<EC75≤25 μM) |  |  |  |  |  |  | 
9 | COc1ccccc1CN1CCN(C(=O)CN2CCC(NC(=O)c3ccc(O)c(O)c3Cl)CC2)CC1 [Example 418, hydrochloride of 2-chloro-3,4-dihydroxy-N-(1-(2-(4-(2-methoxybenzyl)piperazin-1-yl)-2-oxoethyl)piperidin-4-yl)benzamide] | B (25 μM<EC75≤100 μM) | B (25 μM<EC75≤100 μM) |  | A (12.5 μM<EC75≤25 μM) |  |  |  |  |  | 
10 | O=C(O)c1ccccc1CN1CCN(C(=O)CN2CCN(CCc3ccccc3)CC2)CC1 [Example 256, sodium salt of 2-((4-(2-(4-phenethylpiperazin-1-yl)acetyl)piperazin-1-yl)methyl)benzenecarboxylic acid] | B (25 μM<EC75≤100 μM) |  | B (25 μM<EC75≤100 μM) |  |  |  |  |  |  | 
11 | COc1ccccc1CN1CCN(C(=O)C(=NO)C2CCN(CCc3ccccc3)CC2)CC1 [Example 302, hydrochloride of 2-(hydroxyimino)-1-(4-(2-methoxybenzyl)piperazin-1-yl)-2-(1-phenethylpiperidine-4-yl)ethan-1-one] | B (25 μM<EC75≤100 μM) |  | B (25 μM<EC75≤100 μM) | B (25 μM<EC75≤100 μM) |  |  |  |  |  | 
12 | Cn1ccnc1CN1CCN(C(=O)[C@H](N)C2CCN(CCc3cc(Cl)ccc3-c3ccccc3)CC2)CC1 [Example 525, Hydrobromide of (R)-2-amino-2-(1-(2-(4-chloro-[1,1-biphenyl]-2-yl)ethyl)piperidin-4-yl)-1-(4-((1-methyl-1H-imidazol-2-yl)methyl)piperazin-1-yl)ethan-1-one] |  |  |  |  | B (25 μM<EC75≤100 μM) | C (100 μM<EC99) | C (100 μM<EC99) | C (100 μM<EC99) | C (100 μM<EC99) | C (100 μM<EC99)
